Assay results published in patent US20060206946A1, “Method of disrupting heme transport in nematodes and of modelling and evaluating eukaryotic heme transport” (priority 2005, published 2006).

Legend:
[1] = test system: R02E12.6; test: qRT-PCR validation of heme-regulated genes (2^-ΔΔCt method); format: in vivo, Caenorhabditis elegans; conditions: low heme
Experimental: The initial statistical analysis of the Affymetrix genome array was performed at the NIDDK microarray facility using Affymetrix MAS 5.0 Suite software. […] To further narrow-down candidate genes, we eliminated 58 genes that are involved in worm developmental processes by comparing the data from the gene chip to the microarray data of S. Kim. See Kim, S. K. et al., Science 293, 2087-2092 (2001). […] These 280 genes were then sorted based on different categories of changes in gene expression (up, down or no change) seen in 4 μM versus 500 μM samples using 20 μM dataset as the baseline (Table XX). Protein sequence motif analysis (BLOCKS, PRINTS, Pfam), transmembrane (TM-HMM) and secondary structure predictions (ExPASy) proteomics tools are performed to identify domains and motifs within the predicted ORFs […] and the housekeeping gene Ct value: ΔCt=Ctsample−Ctreference. Relative mRNA abundance represents the difference between ΔCt values for a pair of conditions, i.e., 4 μM versus […]. Relative mRNA expression is exponential and defined by the formula [Mrna]=2^−ΔΔCt. […] The standard error for ΔΔCt will be calculated by the method of Livak and Schmittgen. […]

[2] = test system: C. elegans wild-type N2 strain; test: Worm culture and growth assay in axenic CeHR/mCeHR liquid medium; format: in vivo; parameters: key to Growth 1.6 μM hemin / Growth 0.5 μM GaPP: + = wild type equivalent In growth; ND: No growth
Experimental: (D) Biphasic response of C. elegans cultured in the presence of increasing amounts of hemin chloride (μM). Equal numbers of synchronized L1 larvae were grown in 24-well plates in mCeHR medium for 9 days and quantified (worms/μl) by microscopy. Each data point represents the mean±SD from three separate experiments performed in triplicate.
(A) Aerobic growth of C. elegans in mCeFIR medium with 20 μM hemin supplemented with either gallium protoporphyrin IX (GaPP) or gallium salts. Synchronized L1 larvae were grown for 9 days in 24-well plates and quantified (worms/μl) by microscopy. Each data point represents the mean from a single experiment, and each experiment was performed in triplicate. Inset depicts the GaPP analysis at lower concentrations for clarity.
(B) Effect of heme on the cytotoxicity of GaPP. Synchronized L1 larvae were inoculated in 24-well plates containing mCeHR medium with either 0, 2, 4, or 6 μM GaPP and increasing hemin (μM). The number of worms per μl was measured on day 9 and the data are presented as mean±SD.
FIG. 9 depicts worm utilization of heme-iron under iron deprivation. Equal numbers of synchronized L1 larvae were grown in the presence of 4, 20, and 100 μM hemin, either in basal mCeHR medium (set 1), or basal medium lacking exogenous iron (set 2), or as set 2 with 1 μM of the iron chelator ferrozine (set 3), or as set 3 with 486 μM ferrous ammonium sulfate (set 4). These values of ferrozine and iron were empirically determined by performing dose-response experiments and analyzing worm growth. The number of worms per μl was measured on day 9 and the data presented as mean±SD performed in triplicate. P<0.001 between sets 1 and 3.
To qualitatively and quantitatively determine the heme requirement of C. elegans, we assessed growth at various heme concentrations. Equal numbers of L1 larvae were inoculated in CeHR medium with either no cytochrome c and hemin, or with cytochrome c and increasing amounts of hemin (FIG. 4A). The effect of hemin became apparent within 48 hours and by 9 days, the heme-deplete worms were severely growth retarded at the L1/L2 stages. […] However, this stimulatory effect of heme was toxic to worms grown at heme concentrations >750 μM. To quantitatively assess the effect of heme on worms, we counted the number of live worms grown under different concentration of heme using DIC microscopy. […] On the basis of this association between heme and the growth and reproduction of C. elegans, we conclude that the biphasic nature of heme is likely due to the need for heme under heme-deprived conditions to perform essential metabolic functions, and the lethality of heme at high concentrations can be attributed to its cytotoxic activity.
Worm Culture and Growth Assays. Free-living worms were cultured in CeHR axenic liquid medium (Dr. Eric Clegg, Personal Communication). […] CeHR medium was modified (henceforth called mCeHR) to eliminate all sources of exogenously added heme; basal growth medium comprised 20 μM hemin chloride (Frontier Scientific, Logan, Utah) and 150 μM of ferrous ammonium sulfate (Sigma Chemicals). Worm strains were grown in mCeHR medium under aerobic conditions in tissue culture flasks at 20° C. ˜3.7×10^6 worms were routinely obtained after 3.5 to 4 days in a T75 flask with 30 ml basal medium from an initial inoculum of −1.5×10^5 worms. For initial culturing of worms in axenic media, three generations of worms were sequentially bleached (1.1% bleach/0.55 M NaOH) to eliminate any contaminating bacterial carryover from agar plates. In all dose-response experiments, worms were growth synchronized by treating the gravid hermaphrodite worms with bleach to dissolve adult worms. The eggs, resistant to bleach, were liberated from the carcasses and extensively washed with M9 buffer followed by overnight hatching in M9 buffer to synchronize growth. By harvesting at appropriate time intervals, synchronous larval stages and adult staged worms were collected for experimental manipulations. […]

## hemin chloride
[1]
  upregulation of R02E12.6 by qRT-PCR: > 40 fold
[2]; 4 and 500 μM hemin
  growth delay compared to worms grown at 20 μM hemin: ~24 h
[2]; 20 and 100 μM hemin, with ferrozine, P<0.001
  effect on growth under iron deprivation: attenuated the growth retarding effects of iron deprivation
[2]; CeHR medium
  heme concentrations toxic to worms: > 750 µM
[2]; CeHR medium with cytochrome c, L1 larvae inoculum
  hemin concentration at which maximum growth was achieved: 10 µM
[2]; Control Wild-type (N2)
  Growth 1.6 μM hemin: +
[2]; Control Wild-type (N2), 20 μM hemin
  Generation time (Days) 20 μM: 3.5 days
[2]; Control Wild-type (N2), 20 μM hemin, average in 24 well plates
  brood size 20 μM: 62.3
[2]; Control Wild-type (N2), 800 μM hemin
  Generation time (Days) 800 μM: >16 days
[2]; in vivo
  sensitivity to heme in liquid medium versus heme plates: 10 times
[2]; mCeHR medium
  hemin amount resulting in growth arrest at the L3 stage: ≥ 800 µM
[2]; mCeHR medium, 9 days
  optimum concentration of hemin for growth: 20 µM
